These results are taken from US12115151B2, “Method of treatment of p53 WT tumors” (Dana-Farber Cancer Institute, Inc., priority 2018, dated 2024).

One assay concerns MKL-1 MCC cells. The experiment in a line: XTT cell viability assay and synergy testing, MKL-1 cells. It counts as cell-based. Particulars: 96 hours; for sensitivity of MKL-1 cells to MDM2 inhibitor (XTT viability): MKL-1 (p53 wild type); for Response-rep1 / Response-rep2: Lenalidomide 0 nM; for Response: relative viability vs untreated; for relative viability (XTT), untreated = 1: combinations with a fixed amount of Lenalidomide (5 uM), replicate columns. As for the experimental part: (§1) Cell viability assays were performed using Cell Proliferation Kit II (XTT) (Roche) according to the manufacturer's instructions and BH3 profiling was described in Pallis et al. (36). Synergy testing was performed using Compusyn and Synergyfinder (28, 29).
The XTT assay was performed to determine the relative viability (% response) normalized to untreated cells.

For the next assay, the system named is MS-1 cells. The experiment in a line: XTT viability assay, MS-1 cells. It is filed as cell-based. Particulars: MS-1 (p53 mutant); 96 hours. As for the experimental part:
as §1
Background: Tetrazolium assays rely on reduction of a dye to a coloured formazan, in cell work by metabolically active cells.

The test system of a further assay is MKL-1 MCC xenografts. Put plainly: Xenograft efficacy study. Particulars: individual animals, oral daily, HDM201 40 mg/kg and/or lenalidomide 50 mg/kg; for Tumor Volume Change, Abs Ch = T − T0: tumor volumes in mm3.
A further assay deals with p53. Put plainly: Western blot of p53 response in IMR90-p53DD cells. It counts as cell-based, human. Particulars: IMR90 cells expressing p53DD, Nutlin-3 1 μM, 24 hours. Background: In western blotting, separated proteins are transferred to a membrane and probed.
Another assay has as its target CK1α (Homo sapiens, UniProt P48729). Put plainly: Western blot of CK1α protein levels in MKL-1 cells. It is filed as cell-based. Particulars: IMiD 10 μM.

“And” between values parts separate entries of the source, which are not always exact repeats. Equal values may be shown once. “Also recorded” adds a separate entry of the source.

Sequence of CK1α (P48729 whole entry): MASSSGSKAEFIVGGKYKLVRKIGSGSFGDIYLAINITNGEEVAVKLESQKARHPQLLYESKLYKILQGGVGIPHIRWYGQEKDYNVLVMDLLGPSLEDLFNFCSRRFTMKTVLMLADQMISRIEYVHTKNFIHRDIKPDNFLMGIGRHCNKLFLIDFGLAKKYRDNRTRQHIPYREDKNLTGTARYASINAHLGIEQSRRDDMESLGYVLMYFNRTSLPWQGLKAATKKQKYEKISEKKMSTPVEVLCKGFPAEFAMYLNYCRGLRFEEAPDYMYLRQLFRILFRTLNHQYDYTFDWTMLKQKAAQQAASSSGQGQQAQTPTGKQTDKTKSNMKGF
Procedure for CK1α: (§2) Confluent cultures of cells were washed with ice-cold phosphate-buffered saline (PBS) and resuspended in EBC lysis buffer (50 mM Tris, pH 8.0, 150 mM NaCl, 0.5% NP-40, 1:10,000-mercaptoethanol, 0.5 mM EDTA) for 10 min on ice and then centrifuged. Clarified lysates were incubated overnight with antibodies and magnetic protein A/G beads (PureProteome magnetic beads, EMD Millipore). […] Quantitative western blotting was performed using the Odyssey near-infrared system (Li-Cor Biotechnology).
Source text for MKL-1 MCC xenografts: The study was terminated when the tumor volume reached the maximum permissible size of 2000 mm3.
Procedure for p53: as §2

`CC(C)[C@@H](CS(=O)(=O)C(C)C)N1C(=O)[C@@](C)(CC(=O)O)C[C@H](c2cccc(Cl)c2)[C@H]1c1ccc(Cl)cc1` [AMG232]: the “sensitivity of MKL-1 cells to MDM2 inhibitor (XTT viability)” value with MKL-1 MCC cells is recorded as “sensitive”. Further, the “sensitivity of MS-1 cells to MDM2 inhibitor (XTT viability)” value in the assay with MS-1 cells was “not MS-1 cells were sensitive”.

Turning to `COc1ncc(-c2nc3c(n2C(C)C)[C@H](c2ccc(Cl)cc2)N(c2cc(Cl)cn(C)c2=O)C3=O)c(OC)n1` [HDM201, (S)-5-(5-Chloro-1-methyl-2-oxo-1,2-dihydro-pyridin-3-yl)-6-(4-chloro-phenyl)-2-(2,4-dimethoxy-pyrimidin-5-yl)-1-isopropyl-5,6-dihydro-1H-pyrrolo[3,4-d]imidazol-4-one], the Response-rep1 with MKL-1 MCC cells (HDM201 50 nM) was found to be 90.76%; in the assay with MKL-1 MCC cells (HDM201 100 nM) it was 75.8%; in the assay on MKL-1 MCC cells (HDM201 150 nM), 53.3961%; with MKL-1 MCC cells (HDM201 180 nM) it was 33.32%. The Response-rep2 in the assay on MKL-1 MCC cells (HDM201 50 nM) amounted to 92.94%; with MKL-1 MCC cells (HDM201 100 nM), 77.72%; in the assay with MKL-1 MCC cells (HDM201 150 nM) it was 61.84%; in the assay on MKL-1 MCC cells (HDM201 180 nM), 40.87%. The Response in the assay on MKL-1 MCC cells (HDM201 50 nM alone) was 93.9107%; with MKL-1 MCC cells (HDM201 100 nM alone), 90.5417%; in the assay on MKL-1 MCC cells (HDM201 150 nM alone), 94.8184%; in the assay on MKL-1 MCC cells (HDM201 180 nM alone), 87.8557%. Further, the “Tumor Volume Change, % Ch = (T − T0)/T0” value in the assay with MKL-1 MCC xenografts (day 0) is 0.00%; in the assay with MKL-1 MCC xenografts (day 4) it was 168.68% and 25.53% and 16.64% and 93.53% and 6.55% and 29.08% and 14.67% and 11.44%; with MKL-1 MCC xenografts (day 7) it was 392.40% and 107.65% and 56.29% and 123.49% and 37.00% and 27.47% and 30.43% and 28.15%; in the assay with MKL-1 MCC xenografts (day 11) it was 465.37% and 122.53% and 125.88% and 248.58% and 101.24% and 14.09% and 37.76% and 61.17%; with MKL-1 MCC xenografts (day 14), 597.67% and 128.4% and 191.55% and 295.64% and 94.41% and 41.69% and 77.45% and 56.59%; in the assay with MKL-1 MCC xenografts (day 18) it was 741.47% and 4165.70% and 234.58% and 350.27% and 114.06% and 20.72% and 81.45% and 83.83%. Moreover, the “Tumor Volume Change, Abs Ch = T − T0” value in the assay with MKL-1 MCC xenografts (day 0) is 0.00; with MKL-1 MCC xenografts (day 4) it was 302.89 and 66.12 and 32.34 and 133.99 and 10.51 and 44.16 and 21.14 and 14.26; in the assay with MKL-1 MCC xenografts (day 7), 704.61 and 278.82 and 109.40 and 176.91 and 59.41 and 41.71 and 43.86 and 35.09; in the assay on MKL-1 MCC xenografts (day 11), 835.64 and 317.36 and 244.65 and 356.12 and 162.53 and 21.39 and 54.43 and 76.25; with MKL-1 MCC xenografts (day 14) it was 1073.19 and 332.66 and 372.29 and 423.53 and 151.58 and 63.30 and 111.64 and 70.55; with MKL-1 MCC xenografts (day 18), 1331.39 and 429.17 and 455.90 and 501.79 and 183.12 and 31.46 and 117.41 and 104.49.

Take `COc1ccc(C2=N[C@@H](c3ccc(Cl)cc3)[C@@H](c3ccc(Cl)cc3)N2C(=O)N2CCNC(=O)C2)c(OC(C)C)c1` [Nutlin-3]: the “sensitivity of MKL-1 cells to MDM2 inhibitor (XTT viability)” value in the assay on MKL-1 MCC cells was “sensitive”. Besides, the Response is 96.8309% and 82.16% in the assay with MKL-1 MCC cells (Nutlin-3 1250 nM alone); 65.56% and 72.5696% in the assay on MKL-1 MCC cells (Nutlin-3 2500 nM alone); 44.2% and 63.6648% with MKL-1 MCC cells (Nutlin-3 3750 nM alone); 41.19% and 56.8421% with MKL-1 MCC cells (Nutlin-3 4500 nM alone). In the assay on MS-1 cells, the “sensitivity of MS-1 cells to MDM2 inhibitor (XTT viability)” value was “not MS-1 cells were sensitive”. For the same molecule, the p53 response entry is “does not elicit p53 response” in the assay with p53; “did not increase p53, p-p53 and PUMA levels” in the assay with p53 (listed as nutlin-3).

Consider `COc1cc(C(=O)O)ccc1NC(=O)[C@@H]1N[C@@H](CC(C)(C)C)[C@](C#N)(c2ccc(Cl)cc2F)[C@H]1c1cccc(Cl)c1F` [RG7388], for which the “sensitivity of MKL-1 cells to MDM2 inhibitor (XTT viability)” value with MKL-1 MCC cells is recorded as “sensitive”. Moreover, the “relative viability (XTT), untreated = 1” value with MKL-1 MCC cells (Nutlin-3 or RG7388 level 25 (unit not given)) was 0.7819 and 0.7111 and 0.8222; with MKL-1 MCC cells (Nutlin-3 or RG7388 level 50 (unit not given)), 0.6836 and 0.5814 and 0.6885; with MKL-1 MCC cells (Nutlin-3 or RG7388 level 75 (unit not given)), 0.553 and 0.4338 and 0.5431; with MKL-1 MCC cells (Nutlin-3 or RG7388 level 90 (unit not given)), 0.4663 and 0.3695 and 0.5108. For the same molecule, the “sensitivity of MS-1 cells to MDM2 inhibitor (XTT viability)” value in the assay on MS-1 cells is “not MS-1 cells were sensitive”.

Consider `CNc1ncc(-n2nc(N)c3cc(F)c(-c4ccc(O)c5ccccc45)cc32)c(Cl)c1C` [SC-24-UR99, 4-(3-amino-1-(4-chloro-5-methyl-6-(methylamino)pyridin-3-yl)-5-fluoro-1H-indazol-6-yl)naphthalen-1-ol], for which the Response is 103.6933% and 100.5561% in the assay with MKL-1 MCC cells (SC-24-UR99 50 nM alone); 99.5168% and 105.263% in the assay with MKL-1 MCC cells (SC-24-UR99 100 nM alone); 99.3633% and 93.4308% in the assay on MKL-1 MCC cells (SC-24-UR99 150 nM alone); 92.5016% and 89.8385% with MKL-1 MCC cells (SC-24-UR99 180 nM alone).

In the case of `Nc1cccc2c1C(=O)N(C1CCC(=O)NC1=O)C2=O` (stereo not shown) [pomalidomide], at CK1α, the CK1α protein levels entry is reported as “did not reduce CK1α protein levels; also recorded: to a lesser degree”.

Regarding `O=C1CCC(N2C(=O)c3ccccc3C2=O)C(=O)N1` (stereo not shown) [thalidomide], at CK1α, the CK1α protein levels entry is “did not reduce CK1α protein levels; also recorded: not thalidomide”.
